The values that follow come from patent publication US20170000749A1, “Methods for Treating Cognitive Disorders Using Inhibitors of Histone Deacetylase” (Forum Pharmaceuticals, Inc., priority 2008, published 2017).

In the assay the target is one or more of HDAC-1, HDAC-2, HDAC-3, HDAC-4, HDAC-5, HDAC-6, HDAC-7, HDAC-8, HDAC-9, HDAC-10 and HDAC-11. Description: Inhibition of Histone Deacetylase Enzymatic Activity (Boc-Lys(Ac)-AMC substrate, Fluor-de-Lys developer). The following applies: read-out: HDAC Inhibition (IC50 μM) HDAC Enzyme. Type of assay: biochemical. The procedure: The following protocol is used to assay the compounds of the disclosure.
The mixture is pre-incubated for 5 minutes at room temperature. The reaction is started by bringing the temperature to 37° C. and adding 16 μl substrate. Total reaction volume is 50 μl.
In the Tables 8, 9 and 10, A≦0.05 μM; 0.05 μM<B≦0.1 μM; 0.1 μM<C≦1 μM; and 1 μM<D≦10 μM.

Read-outs that look alike come from different tables or passages of the source. Some results are limits rather than exact numbers.

As to `O=C(NO)c1ccc(CN2Cc3ccccc3Oc3ccccc32)cc1` [4-(dibenzo[b,f][1,4]oxazepin-10(11H)-ylmethyl)-N-hydroxybenzamide], the IC50 (Table 10) was below 0.05 µM.

Turning to `O=C(NO)c1cn2c(n1)sc1ccccc12`, the IC50 (Table 10) lay within 0.1 to 1 µM.

For `O=C(NO)c1ccc(Cn2c3c(c4ccccc42)CCCCCC3)cc1` [4-((6,7,8,9,10,11-hexahydro-5H-cycloocta[b]indol-5-yl)methyl)-N-hydroxybenzamide], the IC50 (Table 10) was in the range of 0.1 to 1 µM.

As for `O=C(NO)c1cnc(N2C[C@@H]3C[C@]3(c3ccc(Cl)c(Cl)c3)C2)nc1` [2-((1S,5R)-1-(3,4-dichlorophenyl)-3-azabicyclo[3.1.0]hexan-3-yl)-N-hydroxypyrimidine-5-carboxamide], for the setting “Table 10”, the IC50 lay within 0.1 to 1 µM.

Regarding `O=C(NO)c1ccc(CN(c2ccccc2)c2ccccc2)cc1` [4-((diphenylamino)methyl)-N-hydroxybenzamide], the 50% inhibitory concentration (IC50) (Table 10) fell in the range of 0.1 to 1 µM.

Take `CN(O)C(=O)c1ccc(C2=Nc3ccccc3N(C3CC3)c3ccccc32)cc1` [(Z)-4-(5-cyclopropyl-5H-dibenzo[b,e][1,4]diazepin-11-yl)-N-hydroxy-N-methylbenzamide]: the IC50 (Table 8) is 1 to 10 µM.

Turning to `O=C(NO)c1ccc(CN2c3ccccc3CCc3ccccc32)cc1` [4-((10,11-dihydro-5H-dibenzo[b,f]azepin-5-yl)methyl)-N-hydroxybenzamide], under “Table 10”, the IC50 was below 0.05 µM.

As to `O=C(C=C1c2ccccc2CCc2ccccc21)NO`, the IC50 (Table 10) lay within 1 to 10 µM.

For the compound “(Z)-N-(5H-dibenzo[b,f]azepin-5-yl)methyl)benzyl)-N-hydroxyformamide”, under “Table 10”, the IC50 is 0.1 to 1 µM.

On to `O=C(NO)c1cnc(NC2c3ccccc3CCc3ccccc32)nc1`, for which, where the note is “Table 10”, the IC50 was below 0.05 µM.

Turning to `O=C(NO)c1cccc(CN2c3ccccc3Oc3ccccc32)c1` [3-((10H-phenoxazin-10-yl)methyl)-N-hydroxybenzamide], the IC50 (Table 10) was 1 to 10 µM.

Regarding `O=C(NO)c1cnc(N2CCC[C@H]2c2nc3ccccc3[nH]2)nc1` [(S)-2-(2-(1H-benzo[d]imidazol-2-yl)pyrrolidin-1-yl)-N-hydroxypyrimidine-5-carboxamide], the IC50 (Table 10) lay in the range of 0.1 to 1 µM.

With `O=C(NO)c1cnc(N2C[C@H]3C[C@@]3(c3ccccc3)C2)nc1` [N-hydroxy-2-((1R,5S)-1-phenyl-3-azabicyclo[3.1.0]hexan-3-yl)pyrimidine-5-carboxamide], where the note is “Table 10”, the IC50 was in the range of 0.1 to 1 µM.

For `O=CN(O)CCCCCCN1C(=O)c2ccccc2Oc2ccccc21` [N-hydroxy-N-(6-(11-oxodibenzo[b,f][1,4]oxazepin-10(11H)-yl)hexyl)formamide], the IC50 (Table 10) was below 0.05 µM.

For `O=C(CN1c2ccccc2C=Cc2ccccc21)NO` [(Z)-2-(5H-dibenzo[b,f]azepin-5-yl)-N-hydroxyacetamide], the IC50 (Table 10) lay within 1 to 10 µM.

As to `O=C(NO)c1cccc(CN(c2ccccc2)c2ccccc2)c1` [3-((diphenylamino)methyl)-N-hydroxybenzamide], the IC50 (Table 10) lay within 1 to 10 µM.

`O=C(NO)c1ccc(COC2c3ccccc3CCc3ccccc32)cc1`: for the setting “Table 10”, the IC50 fell in the range of 0.1 to 1 µM.

Turning to `O=C(NO)c1cccc(COC2c3ccccc3CCc3ccccc32)c1`, the IC50 (Table 10) lay in the range of 0.1 to 1 µM.

Consider `O=C(NO)c1cc2c(cn1)[nH]c1ccccc12` [N-hydroxy-9H-pyrido[3,4-b]indole-3-carboxamide], for which the IC50 (Table 10) was 1 to 10 µM.

Consider `O=C(NO)c1cccc(CN2c3ccccc3C=Cc3ccccc32)c1` [(Z)-3-((5H-dibenzo[b,f]azepin-5-yl)methyl)-N-hydroxybenzamide], for which the IC50 (Table 10) was in the range of 0.1 to 1 µM.

With `CN1CCN(C2=Nc3cc(C(=O)NO)ccc3Oc3ccccc32)CC1`, the IC50 (Table 8) lay within 0.1 to 1 µM.

Take `O=C(NO)c1ccc(C2=Nc3ccccc3N(CCN3CCOCC3)c3ccccc32)cc1` [(Z)-N-hydroxy-4-(5-(2-morpholinoethyl)-5H-dibenzo[b,e][1,4]diazepin-11-yl)benzamide]: under “Table 8”, the IC50 was in the range of 0.1 to 1 µM.

Take `O=C(CCCN1C(=O)c2cccnc2N(C2CC2)c2ccccc21)NO` [4-(11-cyclopropyl-5-oxo-5H-benzo[b]pyrido[2,3-e][1,4]diazepin-6(11H)-yl)-N-hydroxybutanamide]: under “Table 10”, the IC50 is 1 to 10 µM.

`O=C(NO)c1cccc(CNC2c3ccccc3CCc3ccccc32)c1`: where the note is “Table 10”, the IC50 was 0.1 to 1 µM.

The term IC50 denotes the concentration that gives 50% inhibition.
